From publication PMC9045243, “Gluconate Kinase Is Required for Gluconate Assimilation and Sporulation in Cryptococcus neoformans” (Microbiology Spectrum, 2022)

Tests used:
[1] = target: T1, CnGnk1 (Gnk1, Gnk1p; formerly IRK3) (Cryptococcus neoformans, UniProt J9VGW6); experiment: 6PGDH-coupled NADPH absorbance at […] nm; format: biochemical; settings: 1 mM MgCl2, 500 uM NADP+, pH 7.5, 37 C
T1 construct: gene CNAG_03048
T1 sequence (J9VGW6 1-230): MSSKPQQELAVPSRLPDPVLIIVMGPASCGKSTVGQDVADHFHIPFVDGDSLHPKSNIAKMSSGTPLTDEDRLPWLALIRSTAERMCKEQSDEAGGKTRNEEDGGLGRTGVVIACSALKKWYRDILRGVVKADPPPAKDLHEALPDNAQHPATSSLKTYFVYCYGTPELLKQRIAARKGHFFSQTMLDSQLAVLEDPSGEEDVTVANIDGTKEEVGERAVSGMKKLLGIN

[2] = target: T1, CnGnk1 (Gnk1, Gnk1p; formerly IRK3); experiment: competition against gluconate, 6PGDH-coupled NADPH absorbance at […] nm; format: biochemical; settings: 0.5 mM gluconate, competing sugar 10 mM

In the case of `Nc1ncnc2c1ncn2[C@@H]1O[C@H](COP(=O)(O)OP(=O)(O)OP(=O)(O)O)[C@@H](O)[C@H]1O` [ATP], the “KM (apparent)” value ([1]; 10 mM gluconate) is reported as 2.6, 95% CI (1.9, 3.7) mM.
For `OC[C@H]1OC(O)[C@H](O)[C@@H](O)[C@H]1O` (some centres unmarked) [galactose], the “% reduction in activity at 10 mM” value [2] was ~ 20%.
For `O=C(O)[C@H](O)[C@@H](O)[C@H](O)[C@H](O)CO` [gluconate], the “KM (apparent)” value ([1]; 10 mM ATP) was 3.7, 95% CI (2.7, 5.2) mM.
In the case of `OC[C@H]1OC(O)[C@H](O)[C@@H](O)[C@@H]1O` (some centres unmarked) [glucose], the “% reduction in activity at 10 mM” value [2] is reported as ~ 40%.
In the case of `OC[C@@H](O)[C@@H](O)[C@H](O)[C@H](O)CO` [mannitol], the “% reduction in activity at 10 mM” value [2] is reported as ~ 20%.
